Legend:
[1] = biological target: T1, Sam68ΔC and Fyn-SH3 binding (Homo sapiens, UniProt Q07666); assay: SH3 domain binding inhibition test 1: Sam68ΔC bound to Fyn-SH3 beads, Western blot; inhibition ratio from band intensity (Test Examples 1 and 4); parameters: species or system recombinant human Sam68ΔC; mouse recombinant Fyn SH3 domain; settings: for inhibition at 60 µM / inhibition at 150 µM: read-out: The inhibition ratio (%) of the compound against SH3 domain binding
T1 construct: (Sam68ΔC) [Sam68(331-443): made by Santa Cruz Co.]; purchased Santa Cruz Sam68(331-443); Fyn(85-139) AC
Procedure: (1) Treatment of Proteins Containing the Proline-Rich Sequences with the Compounds.
The recombinant human Sam68 containing the 2 proline-rich sequences at the C terminal out of 5 proline-rich sequences in Sam68 containing proline-rich sequences (Sam68ΔC) [Sam68(331-443): made by Santa Cruz Co.], 0.25 μg was added to 1 mL of RSB buffer (10 mmol/L Tris-HCl, pH 7.6, 10 mmol/L NaCl, 1.5 mmol/L MgCl2), which is a hypotonic buffer solution containing 0.1% BSA (bovine serum albumin) [bovine serum albumin (F-V): made by Nakaraitesk] to prepare a Sam68ΔC solution. The compound was dissolved in dimethylsulfoxide (DMSO) to prepare a 10 mmol/L solution in DMSO. […] The same amount of DMSO was added to each sample. The compound was subjected to the reaction with Sam68ΔC by incubating the mixture at 37° C. for 6 hours with rotation by a roller culture machine.
(2) Treatment of Proteins Containing the SH3 Domain with the Proteins Containing the Proline-Rich Sequences Treated with the Compounds.
The Sam68ΔC solution treated with the compound, which was obtained in (1), was applied to 5 μL of Fyn-SH3-agarose beads (Fyn-SH3 beads) [Fyn(85-139) AC; made by Santa Crutz Co.], which was a mouse recombinant protein of the Fyn SH3 domain containing the SH3 domain bound to agarose beads. The binding reaction of the Sam68ΔC reacted with the compounds with Fyn-SH3 beads containing the SH3 domain were carried out at 4° C. for 16 hours with slow rotation by the roller culture machine. After the reaction, a resulting complex of Sam68ΔC and Fyn-SH3 beads was precipitated by centrifugation at […] for 3 minutes at 4° C., and then 1 mL of the TritonX/Np40 extraction buffer containing detergents [50 mmol/L Tris-HCl buffer, pH 7.4, 150 mmol/L NaCl, 1 mmol/Lethylenediaminetetraacetic acid (EDTA), 1% TritonX-100, 0.5% Nonidet P-40] was added thereto. The mixture was rotated slowly at 4° C. for 10 minutes by the roller culture machine, and precipitated and washed twice in a similar manner to that as described above. To the complex of Sam68ΔC and Fyn-SH3 beads washed above, 30 μL of Lemery's sample buffer [Protein Chemistry I-Isolation and Purification, Tokyo Kagaku Dojin, p. 211 (1976)] was added, and then the mixture was mixed well and heated at 100° C. for 10 minutes. After precipitating the beads at 1000 ppm for 5 minutes at 25° C. by a centrifuge, the supernatant was subjected to 10% polyacrylamide gel electrophoresis.
(3) Detection of Sam68ΔC Bound to the Fyn-SH3 by Western Blotting.
Sam68ΔC in the supernatant was detected by Western blotting as follows. First, the resulting gel performed the electrophoresis, which was obtained in (2), was blotted onto a nitrocellulose membrane with pore size of 0.45 μm [Protran; made by Schleicher and Schuell Co.]. After non-specific binding of the membrane was blocked by incubating the membrane at 4° C. overnight in phosphate buffer (PBS) containing 0.25% gelatin and 0.2% Tween-20 (PBS-TG), the membrane reacted with mouse anti GST antibody conjugated with horse radish peroxidase (HRP) [GST (B-14) HRP; made by Santa Crutz Co.], which was diluted 1000 times with PBS-TG, for 2 hours. After washing with PBS containing 0.2% Tween 20 (PBS-T), the detection was carried out by the chemo-luminescence reaction using ECL reagent (Amersham Pharmacia Biotech Co.).
The inhibition ratios of the compound against the SH3 domain binding were calculated as follows based on the plot of the results of the Test Example 1. The intensity of the chemo-luminescent bands of Fyn-SH3 and Sam68ΔC developed on a film was measured by a gel-scanner (TYOBO). The relative intensity of Sam68ΔC band against the intensity of Fyn-SH3 band was obtained by dividing the Sam68ΔC band intensity by the Fyn-SH3 band intensity. The ratio of the Fyn-SH3 band intensity to the Sam68ΔC band intensity was set to be 100% when no compound was added. […]

[2] = tested on: HIV-1 LAI strain; assay: HIV-1 growth inhibition test (RT assay) in MT2 cells; type: cell-based; settings: MT2 cells, 3, 5, 7 and 9 days after infection; 1, 5, 10, 25 and 50 mmol/L as printed; FIGS. 9-11 Compound 1, FIGS. 12-14 PP2
Procedure: (1) HIV-1 Infection and Growth Inhibition Experiment.
MT2 cells (T cell strain) were suspended in RPMI1640 medium (GIBCO No.26140-076) supplemented with 10% fetal calf serum (GIBCO, No.26140-079) at 2×10^5 cells/mL and distributed into the each well of 24 well plates (24 well plate: Coster No. 3526) by 1 mL per well. HIV-1 LAI strain {pLAI that contains DNA clone of the whole genome [GeneBank accession No. K02013 Virology 185:661 (1991)] was transfected to HeLa cells by using FuGENE6 Transfection Reagent (Roche Co. No. 1814443), incubated for 2 days and the supernatant was used.} was inoculated to each well at a final concentration of 500 cpm/μL and incubated at 37° C. overnight (virus infection). […]
HIV-1 was determined by the RT assay (Reverse Transcriptase sassy) according to the method described in J. Virol., Vol. 38, p. […]
To 5 μL of the culture supernatant obtained in (1), 25 μL of RT cocktail {50 mmol/L Tris-HCl pH 7.5, 50 mmol/L EDTA, 75 mmol/L KCl, 5 mmol/L MgCl2, 5 μg/mL Poly(A) [Pharmacia, No. 27-4110-01], 1.6 μg/mL oligo(dT)12-18 [Pharmacia, No. 27-7858-01], 5 mmol/L DTT (dithiothreitol), 0.05% NP-40 and 10 PCi/ml [α-^32P]dTTP} was added, and the mixture was incubated at 37° C. for 2 hours. […] The amount of HIV-1 was measured as RT activity count (cpm/μL) with a MICROBRTA PLUS liquid scintillation counter (Perkin Elmer). […]

[3] = tested on: MT2 cells; assay: Cyto-toxicity test, Trypan blue live cell count; type: cell-based; settings: 10 μmol/L, incubated for 3 days
Procedure: MT2 cells (T cell strain) were suspended in RPMI1640 medium (GIBCO, No. 26140-076) supplemented with 10% fetal calf serum (GIBCO, No. 26140-079) at 2×10^5 cells/mL and distributed into each well of 96 well plates [96 well plate: Coster] at 100 μL per well. The compound was added to each well and incubated for 3 days. The cultures were observed under a microscope to examine the condition of cells and cells were harvested, stained with 0.4% Trypan blue (SIGMA, T-8154) and live cells were counted.

[4] = Concentration of the compound 20 μmol/L
[5] = Concentration of the compound 100 μmol/L
[6] = Concentration of the compound 60 μmol/L
[7] = Concentration of the compound 150 μmol/L

T1 sequence (Q07666 331-443, stated change not applied): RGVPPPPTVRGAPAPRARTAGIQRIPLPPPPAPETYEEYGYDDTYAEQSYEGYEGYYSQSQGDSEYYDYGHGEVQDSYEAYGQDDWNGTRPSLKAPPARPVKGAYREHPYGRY

Which results are given for `C[C@H]1C/C=C/[C@H]2[C@@H]3O[C@]3(C)[C@@H](C)[C@H]3[C@H](Cc4ccccc4)NC(=O)[C@]32OC(=O)O/C=C/[C@@](C)(O)C1=O` [Compound 13, Cytochalasin E]?
The inhibition ratio (%) of the compound against SH3 domain binding [1, 4]: 0%; The inhibition ratio (%) of the compound against SH3 domain binding [1, 5]: 21%

Which inhibition at 60 µM [1, 6] does the source give for `C/C1=C\CC(=O)OC23C(=O)NC(Cc4ccc(O)cc4)C2C(C)C2(C)OC2C3/C=C/CC(C)C1=O` (stereo not drawn) [Compound 16] here?
Its inhibition at 60 µM is 67%.

And the inhibition at 150 µM [1, 7]?
The inhibition at 150 µM was 78%.

For `COc1ccc(CC2NC(=O)C34OC(=O)OCCC(C)(O)C(=O)C(C)C/C=C/C3C3OC3(C)C(C)C24)cc1` (stereo not drawn) [Compound 17], which inhibition at 150 µM [1, 7] is on record?
The inhibition at 150 µM was 36%.

For `C=C1C(C)C2C(Cc3ccc(OC)cc3)NC(=O)C23OC(=O)O/C=C/C(C)(O)C(=O)C(C)C/C=C/C3C1O` (stereo not drawn) [Compound 18], which inhibition at 60 µM [1, 6] is on record?
Its inhibition at 60 µM is 16%.

What about the inhibition at 150 µM [1, 7] of the same compound?
The inhibition at 150 µM was 67%.

With `COc1ccc(CC2NC(=O)C34OC(=O)O/C=C/C(C)(O)C(=O)C(C)C/C=C/C3C(O)C(C)=C(C)C24)cc1` (stereo not drawn) [Compound 19] as the compound, how does the inhibition at 150 µM [1, 7] read?
The inhibition at 150 µM was 40%.

What does the source list for `CC1=CC2/C=C(\C)CCC(O)C(O)/C=C/C(=O)OC23C(=O)NC(CC(C)C)C3C1C` (stereo not drawn) [Compound 20]?
inhibition at 60 µM [1, 6]: 92%; inhibition at 150 µM [1, 7]: 100%

`CC1=CC2/C=C(\C)CCCC(O)/C=C/C(=O)OC23C(=O)NC(CC(C)C)C3C1C` (stereo not drawn) [Compound 21] was tested. Which inhibition at 60 µM [1, 6] did it give?
The inhibition at 60 µM was 64%.

What about the inhibition at 150 µM [1, 7] of the same compound?
The inhibition at 150 µM was 100%.

Which results are given for `CC1=CC(/C=C(\C)CCC=O)C2(C(=O)/C=C/C=O)C(=O)NC(CC(C)C)C2C1C` (stereo not drawn) [Compound 22]?
inhibition at 60 µM [1, 6]: 91%; inhibition at 150 µM [1, 7]: 100%

Which inhibition at 60 µM [1, 6] does the source give for `CC1=CC2/C=C(\C)CCC(=O)C(=O)CCC(=O)C23C(=O)NC(CC(C)C)C3C1C` (stereo not drawn) [Compound 24, Aspochalasin A] here?
Its inhibition at 60 µM is 62%.

What about the inhibition at 150 µM [1, 7] of the same compound?
Its inhibition at 150 µM is 80%.

For `CC1=CC2/C=C(\C)CCC(O)C(=O)/C=C/C(=O)C23C(=O)NC(CC(C)C)C3C1C` (stereo not drawn) [Compound 25, Aspochalasin B], which inhibition at 60 µM [1, 6] is on record?
Its inhibition at 60 µM is 87%.

And the inhibition at 150 µM [1, 7]?
The inhibition at 150 µM was 100%.

With `CC1=CC2/C=C(\C)CCC(O)C(O)/C=C/C(=O)C23C(=O)NC(CC(C)C)C3C1C` (stereo not drawn) [Compound 26, Aspochalasin C] as the compound, how does the inhibition at 60 µM [1, 6] read?
Its inhibition at 60 µM is 92%.

And the inhibition at 150 µM [1, 7]?
Its inhibition at 150 µM is 100%.

Which results are given for `CC1=CC2/C=C(\C)CCC(O)C(O)/C=C/C(=O)C23C(=O)NC(CC(C)C)C3C1C` (stereo not drawn) [Compound 27, Aspochalasin D]?
The inhibition ratio (%) of the compound against SH3 domain binding [1, 6]: 100%; The inhibition ratio (%) of the compound against SH3 domain binding [1, 7]: 100%

With `CC1=CC2/C=C(\C)CCC(O)C(O)C(O)CC(=O)C23C(=O)NC(CC(C)C)C3C1C` (stereo not drawn) [Compound 28, Aspochalasin E] as the compound, how does the inhibition at 60 µM [1, 6] read?
Its inhibition at 60 µM is 31%.

And the inhibition at 150 µM [1, 7]?
The inhibition at 150 µM was 73%.

How did the “amount of HIV-1 (RT activity count)” value [2] turn out when `CC(C)(C)n1nc(-c2ccc(Cl)cc2)c2c(N)ncnc21` [pp2, 4-amino-5-(4-chrolophenyl)-7-(tert-butyl)-pyrazolo[3,4-d]pyrimidine] was run?
The value was “increased”.

What does the source list for Mer-WF1726 [Compound 12]?
The inhibition ratio (%) of the compound against SH3 domain binding [1, 4]: 39%; The inhibition ratio (%) of the compound against SH3 domain binding [1, 5]: 88%

For UCS15A [Compound 1], which “live cells (Trypan blue)” value [3] is on record?
Its value is “live cells were not decreased”.

And the “The inhibition ratio (%) of the compound against SH3 domain binding” value [1, 6]?
The value was 0%.

And the “The inhibition ratio (%) of the compound against SH3 domain binding” value [1, 7]?
Its value is 46%.
